Laboratory results as given in patent publication US6589963B2, “Heterocyclic compounds and salts thereof and medicinal use of the same” (Kyoto Pharmaceutical Industries, Ltd., priority 1999, dated 2003).

Experiments:
3T3-L1 cells = assay: Triglyceride accumulation promoting action in 3T3-L1 cells; type: cell-based; conditions: 10^−7 M test compound with 10 ng/ml insulin, 4 days; relative to control
Protocol: A culture medium of 80% confluent 3T3-L1 cells was removed and the cells were dissociated with 0.25% trypsin-EDTA solution. 5% FBS-DMEM (the same amount as the removed medium) was added and the obtained cell suspension was centrifuged at 25° C., 100×g for 1 min to give cell sediment and the supernatant was removed. The cells were re-suspended in a suitable amount of 5% FBS-DMEM medium and the cells were counted. 5% FBS-DMEM medium was added to adjust the concentration to 1×10^5 cells/ml and the mixture was dispensed by 1 ml to a 24 well plate. The cells were cultured with aeration of 5% CO2 at 37° C. for 2 days. Upon confirmation of a post-confluent state, the culture supernatant was changed to a medium containing 0.5 mM-IBMX, and the cells were cultured for 2 days. Then, the medium was changed to a medium containing 10 ng/ml insulin and 10^−7 M test compound and the cells were cultured further for 4 days. After removing the culture supernatant, the cells were lysed in a 0.1% SDS solution and the triglyceride amount was measured. The triglyceride accumulation (%) due to the potentiation of insulin activity by the test compound was calculated from the following formula.
[(triglyceride amount with addition of test compound−triglyceride amount of control)/triglyceride amount of control]×100

male KK-A^y mice [1] = assay: Hypotriglyceridemic action; type: in vivo, mouse; conditions: dose 30 mg/kg orally, 4 consecutive days, non-fasting, about 24 hours after final administration, vs control group
Protocol: (§1) The triglyceride level in the plasma was measured using a commercially available assay kit (triglyceride G-test WAKO, Wako Pure Chemical Industries, Ltd.). The mice were grouped (5 mice per group) into a control group and an administration group, such that the mean and the standard deviation of the triglyceride level in the plasma of each group were nearly the same. Each test compound was suspended or dissolved in 5% gum arabic solution and administered orally to the administration group for 4 consecutive days from the next day. The 5% gum arabic solution was orally administered to the control group. Blood was drawn from the tail vein under a non-fasting state about 24 hours after the final administration and the triglyceride level in the plasma was measured. The decrease in the plasma triglyceride level was calculated from the following formula.
Decrease (%) in plasma triglyceride level=[(mean plasma triglyceride level of control group−mean plasma triglyceride level of test compound administration group)/mean plasma triglyceride level of control group]×100

male KK-A^y mice [2] = assay: Hypoglycemic action (method A); type: in vivo, mouse; conditions: 4 consecutive days, non-fasting, about 24 hours after final administration, vs control group
Protocol: as §1, with “glucose” for “triglyceride”, “(glucose CII-test” for “(triglyceride G-test”
Decrease (%) in plasma glucose level=[(mean plasma glucose level of control group−mean plasma glucose level of test compound administration group)/mean plasma glucose level of control group]×100

Compound	Triglyceride accumulation (%) (3T3-L1 cells)	Decrease (%) in plasma triglyceride level (male KK-A^y mice [1])	Decrease (%) in plasma glucose level (male KK-A^y mice [2]; dose 10 mg/kg orally)	Decrease (%) in plasma glucose level (male KK-A^y mice [2]; dose 30 mg/kg orally)
CCCCCC(=O)N1Cc2cc(OCCc3nc(-c4ccccc4)oc3C)ccc2C[C@H]1C(=O)O [Example 5, 2-Hexanoyl-7-[2-(5-methyl-2-phenyloxazol-4-yl)ethoxy]-1,2,3,4-tetrahydroisoquinoline-(3S)-carboxylic acid]	233.0%	30.9%	34.1%	43.4%
CC(=O)c1cccc(CN2Cc3cc(OCCc4nc(-c5ccccc5)oc4C)ccc3C[C@H]2C(=O)O)c1 [Example 73, 2-(3-Acetylbenzyl)-7-[2-(5-methyl-2-phenyloxazol-4-yl)ethoxy]-1,2,3,4-tetrahydroisoquinoline-(3S)-carboxylic acid]		15.4%		14.8%
C#CCN1Cc2cc(OCCc3nc(-c4ccccc4)oc3C)ccc2C[C@H]1C(=O)O [Example 39, 7-[2-(5-Methyl-2-phenyloxazol-4-yl)ethoxy]-2-(2-propynyl)-1,2,3,4-tetrahydroisoquinoline-(3S)-carboxylic acid]	258.0%	15.6%		30.7%
CC(C)(C)c1nc2ccc(COc3ccc4c(c3)CN(Cc3ccccc3)[C@H](C(=O)O)C4)cc2o1 [Example 52, 2-Benzyl-7-(2-tert-butylbenzoxazol-6-yl)methoxy-1,2,3,4-tetrahydroisoquinoline-(3S)-carboxylic acid]		26.6%		26.3%
Cc1oc(-c2ccccc2)nc1CCOc1ccc2c(c1)CN(CC1CCCCC1)[C@H](C(=O)O)C2 [Example 8, 2-Cyclohexylmethyl-7-[2-(5-methyl-2-phenyloxazol-4-yl)ethoxy]-1,2,3,4-tetrahydroisoquinoline-(3S)-carboxylic acid]	275.5%			
Cc1oc(-c2cccs2)nc1CCOc1ccc2c(c1)CN(Cc1ccccc1)[C@H](C(=O)O)C2 [Example 33, 2-Benzyl-7-[2-(5-methyl-2-(thiophen-2-yl)oxazol-4-yl)ethoxy]-1,2,3,4-tetrahydroisoquinoline-(3S)-carboxylic acid]	222.5%	42.0%		38.8%
CC(C)(CCOc1ccc2c(c1)CN(Cc1ccccc1)[C@H](C(=O)O)C2)c1ccccc1 [Example 49, 2-Benzyl-7-(3-methyl-3-phenylbutoxy)-1,2,3,4-tetrahydroisoquinoline-(3S)-carboxylic acid]		17.0%		11.1%
C=CCN1Cc2cc(OCCc3nc(-c4ccccc4)oc3C)ccc2C[C@H]1C(=O)O [Example 38, 2-Allyl-7-[2-(5-methyl-2-phenyloxazol-4-yl)ethoxy]-1,2,3,4-tetrahydroisoquinoline-(3S)-carboxylic acid]		30.0%		28.0%
Cc1oc(C(C)C)nc1CCOc1ccc2c(c1)CN(Cc1ccccc1)[C@H](C(=O)O)C2 [Example 34, 2-Benzyl-7-[2-(5-methyl-2-isopropyloxazol-4-yl)ethoxy]-1,2,3,4-tetrahydroisoquinoline-(3S)-carboxylic acid]		17.3%		23.5%
CCCCC(=O)N1Cc2cc(OCCc3nc(-c4ccccc4)oc3C)ccc2C[C@H]1C(=O)O [Example 43, 7-[2-(5-Methyl-2-phenyloxazol-4-yl)ethoxy]-2-pentanoyl-1,2,3,4-tetrahydroisoquinoline-(3S)-carboxylic acid]		20.9%		27.5%
COc1ccc(CN2Cc3cc(OCCc4nc(-c5ccccc5)oc4C)ccc3C[C@H]2C(=O)O)cc1 [Example 16, 2-(4-Methoxybenzyl)-7-[2-(5-methyl-2-phenyloxazol-4-yl)ethoxy]-1,2,3,4-tetrahydroisoquinoline-(3S)-carboxylic acid]	288.9%	19.8%		34.5%
Cc1oc(-c2ccccc2)nc1CCOc1ccc2c(c1)CN(CC(=O)O)[C@H](C(=O)O)C2 [Example 69, 2-Carboxymethyl-7-[2-(5-methyl-2-phenyloxazol-4-yl)ethoxy]-1,2,3,4-tetrahydroisoquinoline-(3S)-carboxylic acid]		15.2%		12.5%
CC(C)(CCOc1ccc2c(c1)CN(Cc1ccccc1)[C@H](C(=O)O)C2)Cc1ccccc1 [Example 50, 2-Benzyl-7-(3,3-dimethyl-4-phenylbutoxy)-1,2,3,4-tetrahydroisoquinoline-(3S)-carboxylic acid]		35.7%		11.4%
C=CCCc1nc(CCOc2ccc3c(c2)CN(Cc2ccccc2)[C@H](C(=O)O)C3)c(C)o1 [Example 37]	277.3%			11.1%
CC(C)c1nc2ccc(COc3ccc4c(c3)CN(Cc3ccccc3)[C@H](C(=O)O)C4)cc2o1 [Example 51, 2-Benzyl-7-(2-isopropylbenzoxazol-6-yl)methoxy-1,2,3,4-tetrahydroisoquinoline-(3S)-carboxylic acid]		10.7%		20.0%
Cc1oc(-c2ccccc2)nc1CCOc1ccc2c(c1)CN(Cc1ccc(F)cc1)[C@H](C(=O)O)C2 [Example 21, 2-(4-Fluorobenzyl)-7-[2-(5-methyl-2-phenyloxazol-4-yl)ethoxy]-1,2,3,4-tetrahydroisoquinoline-(3S)-carboxylic acid]	284.9%	24.4%		43.4%
7-[2-(5-Methyl-2-phenyloxazol-4-yl)ethoxy]-2-(4-pentenoyl)-1,2,3,4-tetrahydroisoquinoline-(3S)-carboxylic acid [Example 44]		19.1%		48.0%
CC=CCN1Cc2cc(OCCc3nc(-c4ccccc4)oc3C)ccc2C[C@H]1C(=O)O [Example 40]	231.0%	36.1%		46.3%
CCC=Cc1nc(CCOc2ccc3c(c2)CN(Cc2ccccc2)[C@H](C(=O)O)C3)c(C)o1 [Example 62, 2-Benzyl-7-{2-[2-(1-butenyl)-5-methyloxazol-4-yl]ethoxy}-1,2,3,4-tetrahydroisoguinoline-(3S)-carboxylic acid]	327.8%			
Cc1oc(-c2ccccc2)nc1CCOc1ccc2c(c1)CC(C(=O)O)N(Cc1ccccc1)C2 (racemic) [Example 72, 2-Benzyl-6-[2-(5-methyl-2-phenyloxazol-4-yl)ethoxy]-1,2,3,4-tetrahydroisoquinoline-(3RS)-carboxylic acid]		24.0%		15.9%
